{"source": "patent US20230279053A1", "about": "(priority 2020, published 2023)", "key": {"Human GLP-1R": {"molecular_target": "T1, Human GLP-1R (Homo sapiens, UniProt P43220)", "T1 construct": "expressed in transfected cells; host or cells: HEK cells, BacMam transduction", "T1 sequence (P43220 24-463)": "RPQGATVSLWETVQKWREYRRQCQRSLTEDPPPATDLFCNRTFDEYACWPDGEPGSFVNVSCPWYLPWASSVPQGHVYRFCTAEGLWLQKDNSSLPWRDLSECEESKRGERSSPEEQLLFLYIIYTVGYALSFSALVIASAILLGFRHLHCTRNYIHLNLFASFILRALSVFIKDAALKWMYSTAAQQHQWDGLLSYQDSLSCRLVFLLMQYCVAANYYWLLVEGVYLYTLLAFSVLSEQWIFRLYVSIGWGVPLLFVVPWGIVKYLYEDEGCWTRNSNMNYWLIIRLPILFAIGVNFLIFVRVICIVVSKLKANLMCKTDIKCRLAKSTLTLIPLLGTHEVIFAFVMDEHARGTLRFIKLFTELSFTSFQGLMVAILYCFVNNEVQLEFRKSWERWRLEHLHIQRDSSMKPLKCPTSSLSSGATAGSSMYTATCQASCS", "assay": "Functional antagonism of human GLP1 receptors, cAMP accumulation assay", "assay_type": "cell-based", "settings": "HEK cells infected with GLP-1R Bacmam; stimulated with EC80 of GLP-1(7-36) amide; HiRange cAMP kit; IC50 corrected by Cheng-Prusoff adaptation", "method": "The method followed a two-step protocol provided in the kit. In brief, HEK cells infected with 1% v/v GLP-1R Bacmam for 24 h were harvested using cell dissociation solution (Gibco), centrifuged and resuspended in the assay buffer (HBSS (Lonza) supplemented with 0.5 mM IBMX (Tocris)). DMSO stock of test compounds were serially diluted in the assay buffer and added to 96-well half area white plates (Costar). Final DMSO concentration in the assay was 0.3%. 20K cells per well were added to plates followed by 30 min incubation (humidified air (5% CO2), 37° C.). […] Intracellular accumulation of cAMP was stopped by addition of the HTRF detection reagents in lysis buffer, provided in the kit. Following 1-hour incubation at RT, plates were read on Pherastar FS (BMG Labtech, Inc.) Dotmatics Studies software was used for fitting data to a four-parameter concentration response curve. Calculated IC50 values were corrected for the agonist concentration using an adaptation of the Cheng-Prusoff equation to generate functional pKb values: […]"}, "Mouse GLP-1R": {"molecular_target": "T2, Mouse GLP-1R (Mus musculus, UniProt O35659)", "T2 construct": "expressed in transfected cells", "T2 sequence (O35659 22-463)": "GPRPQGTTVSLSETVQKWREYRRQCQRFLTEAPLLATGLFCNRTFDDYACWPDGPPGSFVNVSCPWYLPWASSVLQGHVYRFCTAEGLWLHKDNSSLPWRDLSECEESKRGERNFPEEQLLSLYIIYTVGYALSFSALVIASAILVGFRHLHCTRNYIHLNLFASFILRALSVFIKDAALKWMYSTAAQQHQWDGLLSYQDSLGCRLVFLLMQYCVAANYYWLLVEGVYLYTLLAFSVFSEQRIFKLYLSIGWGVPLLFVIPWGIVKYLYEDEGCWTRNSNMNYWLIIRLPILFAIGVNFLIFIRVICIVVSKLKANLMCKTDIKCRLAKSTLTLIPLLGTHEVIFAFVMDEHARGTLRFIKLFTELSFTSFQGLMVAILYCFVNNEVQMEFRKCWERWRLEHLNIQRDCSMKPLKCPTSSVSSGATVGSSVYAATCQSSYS", "assay": "Functional antagonism of mouse GLP1 receptors, cAMP accumulation assay", "assay_type": "cell-based", "settings": "CHO-K1 cells stably expressing mouse GLP-1R; stimulated with EC80 of Exendin-4; HitHunter cAMP assay; IC50 corrected by Cheng-Prusoff adaptation", "method": "Antagonist inhibition of cAMP production upon stimulation of GLP-1R with agonist ligand was assessed using HitHunter cAMP assay (DiscoverX). The method followed antagonist procedure steps provided in the kit. In brief, CHO-K1 cells stably expressing mouse GLP-1R were thawed and plated at 10K cells per well in CP05 reagent in the total volume of 20 μl into white walled, 384-well plates and incubated overnight at 37° C. in Cytomat. On the day of the assay, the media was replaced with 15 μl of HBSS/10 mM HEPES. DMSO stock of test compounds were serially diluted in DMSO and then further diluted in the HBSS/10 mM HEPES, 5 μl of each concentration were added to the plate followed by 30 min incubation at 37° C. Final DMSO concentration in the assay was 1%. Cells were stimulated for further 30 min at 37° C. by addition of an equivalent to EC80 concentration of Exendin-4. Intracellular accumulation of cAMP was stopped by addition of the HitHunter detection reagents in lysis buffer, provided in the kit. Following 1-hour incubation at RT in the dark, plates were read on Envision (Perkin Elmer). Dotmatics Studies software was used for fitting data to a four-parameter concentration response curve. Calculated IC50 values were corrected for the agonist concentration using an adaptation of the Cheng-Prusoff equation to generate functional pKb values: […]"}}, "data": [{"substance": "exendin(9-39)amide [Ex 9-39]", "values": [{"measurement": "Human GLP-1R antagonist cAMP fpKb", "setting": "Human GLP-1R", "value": 7.8}, {"measurement": "Mouse GLP-1R antagonist cAMP fpKb", "setting": "Mouse GLP-1R", "value": 7.2}]}]}
